# Values of other authors as cited in PMC12296474, “Nano-Amounts of Glucagon Premixed With Fast-Acting Insulin Lispro: Effect on Insulin Absorption in Pigs” (Current Therapeutic Research, Clinical and Experimental, 2025).
# System: subcutaneous blood flow
# Settings: healthy subjects
# Experimental: We focused our proof-of-concept experiments on adding nanogram doses of glucagon to Lyumjev^Ⓡ, the most fast-acting insulin formulation available on the market. As previously discussed, we believe glucagon may increase insulin absorption through significant but very localized subcutaneous vasodilation. Therefore, it is noteworthy that when glucagon was added to Lyumjev^Ⓡ, an insulin formulation that already contains 10 ng of the vasodilator treprostinil per unit of insulin, we observed even faster insulin absorption. This effect was not observed in experiments with glucagon added to Humalog^Ⓡ. ...
substance,measurement,value
glucagon,Enhancement of subcutaneous blood flow,4% to 500
